Assay results as given in patent US20240082271A1, “Methods of Treatment of Fibrotic Diseases” (PHOST’IN THERAPEUTICS, priority 2021, published 2024).

Columns and labels:
NIH3T3 fibroblasts = assay: Wound healing (scratch) inhibition test in presence of TGFβ; format: cell-based; conditions: 1 μM tested compound, 24 h, in presence of TGFβ 5 ng/ml
Description: NIH3T3 fibroblasts were seeded at 40 000 cells per cm2 in a 24 well plate, DMEM+10% FBS.
Before wound/treatment, cells were washed twice in DMEM without serum then incubated in the appropriate condition DMEM+2.5% FBS, TGFβ+/−, PST3.1+/−.
TGFβ 5 ng/ml; PST3.1 1 μM, n=6 wells per treatment.
At t0, cell layer is scratched using a needle and observed under microscope to take 3 pictures per well using a scale measure referential to measure width of the scratch using imageJ software.
After 24 h of incubation in the desired condition, scratch is measured under microscope by taking 3 pictures at the same scale using the same referential.
Data are treated by calculating percentage of closing.

[1] = tested on: STAM NASH model mice (liver fibrosis); assay: STAM NASH model mice, Sirius red-stained liver fibrosis area and tolerability; format: in vivo; conditions: for Sirius red positive area (fibrosis area) of liver sections: PO 6-9 wks of age, compound 3.1 15 mg/kg BID, Telmisartan 10 mg/kg QD, mean±SD, p<0.01 vs vehicle
From the text: The STAM model (developed and standardized by SMC Laboratories, Japan https://www.smccro-lab.com/) is a model that recapitulates the same disease progression as human nonalcoholic steatohepatitis (NASH) and hepatocellular carcinoma (HCC): in 25% of affected patients (i.e. 20%-25% of the adult population), nonalcoholic fatty liver disease progresses to NASH, which increases the risk for the development of cirrhosis, liver failure, and hepatocellular carcinoma. In patients with NASH, liver fibrosis is the main determinant of mortality (https://doi.org/10.1053/j.gastro.2019.11.311). In this model, male C57BL/6 mice aged two days are given a single dose of streptozotocin to reduce insulin secretory capacity. When the mice turn four weeks of age they start a high-fat diet feeding. This model has a background of late type 2 diabetes which progresses into fatty liver, NASH, fibrosis and consequently liver cancer (HCC). Compared to other NASH-HCC model mice, the disease progresses in a relatively short period of time, and liver cancer is developed in 100% of animals at 20 weeks of age.
C57BL/6JJmsSlc mice (14-day-pregnant female) were obtained from Japan SLC, Inc. (Japan). Two days after birth, NASH is induced in male mice by a single subcutaneous injection of 200 μg streptozotocin (STZ, Sigma-Aldrich, USA) solution and feeding with high fat diet (HFD, 57 kcal % fat, Cat #HFD32, CLEA Japan, Inc., Japan) after 4 weeks of age. Sterilized solid HFD is provided ad libitum, and replaced once every 2 days according to the manufacturer's instructions. Then, NASH model mice are divided into 3 randomized groups of 10 mice at 6 weeks of age based on their body weight the day before the start of treatment. The randomization was performed by body weight-stratified random sampling using Excel software. NASH model mice were stratified by their body weight to get SD and the difference in the mean weights among groups as small as possible.
Group 1: Vehicle (10 NASH mice orally administered with Placebo nanosuspension in a volume of 10 mL/kg twice daily from 6 to 9 weeks of age).
Group 2: Compound 3.1 (PST3.1) ((10 NASH mice orally administered with compound 3.1 nanosuspension at a dose of 15 mg/kg in a volume of 10 mL/kg twice daily (2*15 mg/kg/day) from 6 to 9 weeks of age).
Group 3: Telmisartan (10 NASH mice will be orally administered vehicle supplemented with Telmisartan at a dose of 10 mg/kg once daily in a volume of 10 mL/kg from 6 to 9 weeks of age). Vehicle and compound 3.1 were provided by Phost'in Therapeutics SAS. Telmisartan (Micardis®) was purchased from Boehringer Ingelheim GmbH (Germany).
After 3 weeks of treatment mice were sacrificed, whole liver were collected and washed with cold saline. Individual whole liver (parietal side and visceral side) was taken photos. Liver weight were measured and liver-to-body weight ratio were calculated. The left lateral lobes of livers will be separated and dissected as described in FIG. 6, and stored as described below: • a: Liver specimens were stored at −80° C. embedded in Optimal Cutting Temperature (O.C.T., Sakura Finetek Japan, Japan) compound. • b: Liver specimens were fixed in Bouin's solution (Sigma-Aldrich, Japan) for 24 hours. After fixation, these specimens were proceeded to paraffin embedding for Sirius red-staining. • c: Liver specimens were snap frozen in liquid nitrogen and stored at −80° C.
Sections were cut from paraffin blocks of liver tissue using the rotary microtome (Leica Microsystems). […]

[2] = tested on: SNx rats (renal fibrosis); assay: Kidney fibrosis model: 5/6 subtotal nephrectomy (SNx) rats, histological and immunohistochemical staining of kidney sections; format: in vivo, Sprague-Dawley rats
From the text: Male Sprague-Dawley rats underwent ⅚ subtotal nephrectomy (SNx) and were used as the kidney fibrosis model, since SNx rats developed tubulointerstitial fibrosis. During this surgery, the right kidney is removed and 2 of the 3 branches of the left renal artery are ligated in order to necrose ⅔ of the kidney. The control kidney is right kidney before nephrectomy. Tubulointerstitial renal fibrosis inevitably leads to renal function deterioration and failure, independently of the primary renal disease. It is worth noting that in SNx rats, plasmatic creatinine concentration increases from 25.7±1.3 μM to 120.0±33.0 μM. Sirius red staining highlights fibrosis by staining collagens in paraffin-embedded kidney tissue sections. Five micrometer-thick sections were cut and mounted on glass slides. Slides were deparaffinized and stained with Sirius red for evaluation of collagen localization. […] The sections were mounted in Entelan mounting medium and examined under microscope. For each sample, quantification was performed with Image J software on pictures taken from 10 fields of kidney sections at 200-fold magnification. The staining area was measured on kidney section fields. Immunohistochemical analyses of kidney sections were also performed using paraffin sections. The primary antibody, anti-Mgat5 was incubated overnight at 4° C. Revelation was performed with Universal vectastain ABC kit and ImmPACT AE following the instructions of suppliers, Vector Laboratories. Then, the sections were mounted in an aqueous mounting medium, VectaMount™ AQ and examined under microscope (Nikon Eclipse TE300). Quantification was carried out as for histological staining.
Compound 3.1 was orally administered to control rats and SNx rats (as above described) at 20 mg/kg daily per 28 days. A control was carried out with a vehicle (without compound 3.1) administered in the same manner as compound 3.1. Sprague Dawley rats will be used. The rats will be fed ad libitum and will be placed in a 12 hour light, 12 hour dark cycle. They will be divided 3 per cage. Some rats undergo ⅚ subtotal nephrectomy (SNx) to develop chronic kidney failure which will lead to the development of renal fibrosis. The 3.1a treatment was administered to the rats on the day of nephrectomy and continued for the entire protocol. It is delivered as a nanosuspension diluted in drinking water. Control rats receive the solvent alone (placebo). Histological and immunohistochemical methods were monitored as described in example 1.

MGAT5 activity = assay: L-PHA lectin staining of kidney sections as glycans marker of MGAT5 activity in SNx rats; format: in vivo, Sprague-Dawley rats; conditions: treated SNx rats, 20 mg/kg daily oral, 4 weeks
From the text: Male Sprague-Dawley rats underwent ⅚ subtotal nephrectomy (SNx) and were used as the kidney fibrosis model, since SNx rats developed tubulointerstitial fibrosis. During this surgery, the right kidney is removed and 2 of the 3 branches of the left renal artery are ligated in order to necrose ⅔ of the kidney. The control kidney is right kidney before nephrectomy. Tubulointerstitial renal fibrosis inevitably leads to renal function deterioration and failure, independently of the primary renal disease. It is worth noting that in SNx rats, plasmatic creatinine concentration increases from 25.7±1.3 μM to 120.0±33.0 μM. Sirius red staining highlights fibrosis by staining collagens in paraffin-embedded kidney tissue sections. Five micrometer-thick sections were cut and mounted on glass slides. […] For each sample, quantification was performed with Image J software on pictures taken from 10 fields of kidney sections at 200-fold magnification. The staining area was measured on kidney section fields. […] Quantification was carried out as for histological staining.
Compound 3.1 was orally administered to control rats and SNx rats (as above described) at 20 mg/kg daily per 28 days. […] Histological and immunohistochemical methods were monitored as described in example 1.
Glycosylation resulting from MGAT5 activity will be specifically measured by L-PHA lectin staining. […]

[3] = 15 mg/kg PO BID, 3 weeks of treatment

c1ccc(CN[C@@H]2[C@@H](OCc3ccccc3)[C@H](OCc3ccccc3)[C@@H](COCc3ccccc3)O[P@@]2c2ccccc2)cc1 [Compound 4.6, (2S,3S,4S,5S,6R)-3-(benzylamino)-4,5-bis(benzyloxy)-6-((benzyloxy)methyl)-2-phenyl-1,2-oxaphosphinane]
% inhibition of wound healing (NIH3T3 fibroblasts): 29.3%

CCCc1nc2c(C)cc(-c3nc4ccccc4n3C)cc2n1Cc1ccc(-c2ccccc2C(=O)O)cc1 [Telmisartan, reference compound]
Sirius red positive area (fibrosis area) of liver sections [1]: 0.50±0.24%

CC1(C)OC[C@H](C2O[P@@](=O)(c3ccccc3)[C@H](NCc3ccccc3)[C@H]3OC(C)(C)O[C@@H]23)O1 (stereo partly drawn) [Compound 3.3, (3aR,6S,7S,7aS)-7-(benzylamino)-4-((R)-2,2-dimethyl-1,3-dioxolan-4-yl)-2,2-dimethyl-6-phenyltetrahydro-[1,3]dioxolo[4,5-d][1,2]oxaphosphinine 6-oxide]
% inhibition of wound healing (NIH3T3 fibroblasts): 29.8%

O=[P@@]1(c2ccccc2)O[C@H](COCc2ccccc2)[C@@H](OCc2ccccc2)[C@H](OCc2ccccc2)C1O (stereo partly shown) [Compound 3.1, 3-Hydroxy-4,5-bis-benzyloxy-6-benzyloxymethyl-2-phenyl-2-oxo-2λ5-[1,2]oxaphosphinane]
fibrosis, Sirius red staining area of kidney sections ([2]; SNx rats treated, 20 mg/kg daily oral, 4 weeks): 5.8±1.2% | plasma/serum creatinine concentration ([2]; SNx treated rats vs SNx rats on placebo, 20 mg/kg daily oral, at 4 weeks): lower serum creatinine | treatment effect on collagen III in controls ([2]; control (non-nephrectomized) rats, 20 mg/kg daily oral, 4 weeks): no treatment effect | effect of treatment on fibrosis (Sirius red) ([2]; healthy animals or SNx, 4 weeks): no significant effect | collagen I expression, kidney immunostaining ([2]; treated SNx rats, 20 mg/kg daily oral, 4 weeks, p=0.014 vs untreated SNx): 1.3±0.3% | collagen IV expression, kidney immunostaining ([2]; treated SNx rats, 20 mg/kg daily oral, 4 weeks, p=0.015 vs untreated SNx): 6.4±0.3% | collagen III level, kidney immunostaining ([2]; treated SNx rats, 20 mg/kg daily oral, 4 weeks, p=0.27 vs untreated SNx): 4.0±0.3% | PHA-L staining of kidney sections (MGAT5 activity): 5.1±0.5% | % inhibition of wound healing (NIH3T3 fibroblasts): 42.0% | body weight loss [1, 3]: no body weight loss | clinical signs [1, 3]: no clinical signs | death [1, 3]: no death | Sirius red positive area (fibrosis area) of liver sections [1]: 0.47±0.12%

O=[P@@]1(c2ccc(Oc3ccccc3)cc2)O[C@H](COCc2ccccc2)[C@@H](OCc2ccccc2)[C@H](OCc2ccccc2)[C@H]1O [Compound 3.0, (2S,3S,4S,5S,6R)-4,5-bis(benzyloxy)-6-((benzyloxy)methyl)-3-hydroxy-2-(4-phenoxyphenyl)-1,2-oxaphosphinane 2-oxide]
% inhibition of wound healing (NIH3T3 fibroblasts): 23.0%

CC1(C)OC[C@H](C2O[P@](=O)(c3ccccc3)[C@@H](OC(=O)c3ccccc3)[C@H]3OC(C)(C)O[C@@H]23)O1 (stereo partly drawn) [Compound 4.2, (3aR,6R,7R, 7aS)-4-((R)-2,2-dimethyl-1,3-dioxolan-4-yl)-2,2-dimethyl-6-oxido-6-phenyltetrahydro-[1,3]dioxolo[4,5-d][1,2]oxaphosphinin-7-yl benzoate]
% inhibition of wound healing (NIH3T3 fibroblasts): 17.2%

CC(=O)N[C@@H]1[C@@H](OCc2ccccc2)[C@H](OCc2ccccc2)[C@@H](COCc2ccccc2)O[P@@]1(=O)c1ccccc1 [Compound 2.2, N-((2S,3S,4S,5S,6R)-4,5-bis(benzyloxy)-6-((benzyloxy)methyl)-2-oxido-2-phenyl-1,2-oxaphosphinan-3-yl)acetamide]
% inhibition of wound healing (NIH3T3 fibroblasts): 28.7%
